Reference: US10750742B2, “Pesticidally active pyrazole derivatives” (SYNGENTA PARTICIPATIONS AG, priority 2015, dated 2020)
Where two headings read alike, the source gives them in different places.

How the values were obtained:
Assay type in all cases: in vivo
[1] = tested on: Myzus persicae; assay: Myzus persicae (green peach aphid), sunflower leaf disc spray test; settings: foliar, 144 h
Method: (§1) Myzus persicae (Green Peach Aphid):
Sunflower leaf discs were placed on agar in a 24-well microtiter plate and sprayed with test solutions at an application rate of 200 ppm. After drying, the leaf discs were infested with an aphid population of mixed ages. After an incubation period of 6 DAT, samples were checked for mortality. The following compounds gave at least 80% mortality of Myzus persicae: compounds 1,2, 3, 4, 5, 6, 11, 12, 15, 17, 18, 19, 20, 23, 24, 25, 26, 27, 30, 32, 33, 34 35, 41, 43, 44, 47, 50, 55, 58, 59, 60, 61, 62, 63, 64, 65 and 66.

[2] = tested on: Myzus persicae; assay: Myzus persicae (green peach aphid), sucrose solution / Parafilm test; settings: 120 h
Excerpt: as §1
Test compounds were applied by pipette into 24 well plates and mixed with Sucrose solution. Application rate: 12.5 ppm. The plates were closed with a stretched parafilm. A plastic stencil with 24 holes is placed onto the plate and infested pea seedlings were placed directly on the Parafilm. The infested plate is closed with a gel blotting paper and another plastic stencil and then turned upside down. 5 days after infestation the samples were checked on mortality.

[3] = tested on: Plutella xylostella; assay: Plutella xylostella (diamond back moth), artificial diet test; settings: 120 h, read-out: control (mortality and growth inhibition)
Method: Plutella xylostella (Diamond Back Moth):
(§2) 24-well microtiter plates with artificial diet were treated with aqueous test solutions prepared from 10′000 ppm DMSO stock solutions by pipetting. After drying, the plates were infested with L2 larvae (10 to 15 per well). The samples were assessed for mortality and growth inhibition in comparison to untreated samples 5 days after infestation.

[4] = tested on: Diabrotica balteata; assay: Diabrotica balteata (corn root worm), maize sprout test; settings: 96 h, read-out: control (mortality and growth inhibition)
Method: Diabrotica balteata, (Corn Root Worm)
as §2, with “Maize sprouts, placed on an agar layer in 24-well” for “24-well”, “plates” for “plates with artificial diet”, “spraying.” for “pipetting.”, “(6” for “(10”, “10” for “15”, “4” for “5”

[5] = tested on: Euschistus heros; assay: Euschistus heros (neotropical brown stink bug), soybean leaf test; settings: 120 h, read-out: effect in at least one of the two categories (mortality or growth inhibition); for percent effect (mortality or growth inhibition) at 200 ppm: application rate 200 ppm, N2 nymphs, 5 days after infestation
Method: Euschistus heros (Neotropical Brown Stink Bug):
Soybean leaves on agar in 24-well microtiter plates were sprayed with aqueous test solutions prepared from 10′000 ppm DMSO stock solutions. After drying the leaves were infested with N2 nymphs. The samples were assessed for mortality and growth inhibition in comparison to untreated samples 5 days after infestation.

[6] = tested on: Thrips tabaci; assay: Thrips tabaci (onion thrips), sunflower leaf disc test; settings: foliar, 144 h, read-out: control (mortality)
Method: Thrips tabaci (Onion Thrips):
(§3) Sunflower leaf discs were placed on agar in 24-well microtiter plates and sprayed with aqueous test solutions prepared from 10′000 ppm DMSO stock solutions. After drying the leaf discs were infested with a thrips population of mixed ages. The samples were assessed for mortality 6 days after infestation.

[7] = tested on: Spodoptera littoralis; assay: Spodoptera littoralis (Egyptian cotton leaf worm), cotton leaf disc spray test; settings: foliar, 72 h, read-out: control (at least one of mortality, anti-feedant effect, growth inhibition); for percent control (mortality, anti-feedant effect or growth inhibition) at 200 ppm: application rate 200 ppm, L1 larvae, 3 days after infestation
Method: Spodoptera littoralis (Egyptian Cotton Leaf Worm)
Cotton leaf discs were placed on agar in 24-well microtiter plates and sprayed with aqueous test solutions prepared from 10′000 ppm DMSO stock solutions. After drying the leaf discs were infested with five L1 larvae. The samples were assessed for mortality, anti-feedant effect, and growth inhibition in comparison to untreated samples 3 days after infestation. Control of Spodoptera littoralis by a test sample is when at least one of mortality, anti-feedant effect, and growth inhibition is higher than the untreated sample.

[8] = tested on: Tetranychus urticae; assay: Tetranychus urticae (two-spotted spider mite), bean leaf disc test; settings: foliar, 192 h, read-out: control (mortality on mixed population, mobile stages)
Method: Tetranychus urticae (Two-Spotted Spider Mite):
as §3, with “Bean” for “Sunflower”, “discs” for “discs were placed”, “were” for “and”, “mite” for “thrips”, “on mixed population (mobile stages) 8” for “6”

[9] = application rate 200 ppm, mixed ages, 6 DAT, read-out: mortality
[10] = test rate of 12 ppm, sucrose solution, 5 days after infestation, read-out: mortality
[11] = application rate 200 ppm, L2 larvae, 5 days after infestation
[12] = application rate 200 ppm, L2 larvae, 4 days after infestation
[13] = application rate 200 ppm, mixed ages, 6 days after infestation
[14] = application rate 200 ppm, 8 days after infestation

COc1nn(C)c(-n2cc(-c3ccc(Cl)c(C(=O)NC4(C#N)CC4)c3)cn2)c1C(F)(F)F [compound 5]
≥ 80%: mortality at 200 ppm [1, 9] | mortality at 12 ppm [2, 10]

Cn1nc(OC(F)(F)C(F)(C(F)=C(F)C(F)(F)F)C(F)(F)F)c(C(F)(F)F)c1-n1cc(-c2ccc(Cl)c(C(=O)NC3(C#N)CC3)c2)cn1 (centres unmarked) [compound 50]
≥ 80%: mortality at 200 ppm [1, 9] | mortality at 200 ppm [3, 11] | mortality at 200 ppm [4, 12] | mortality at 12 ppm [2, 10] | percent effect (mortality or growth inhibition) at 200 ppm [5] | mortality at 200 ppm [6, 13] | percent control (mortality, anti-feedant effect or growth inhibition) at 200 ppm [7] | mortality at 200 ppm [8, 14]

Cn1nc(OCCOC(F)(F)F)c(C(F)(F)F)c1-n1cc(-c2ccc(Cl)c(C(=O)NC3CC3)c2)cn1 [compound 34]
≥ 80%: mortality at 200 ppm [1, 9] | mortality at 200 ppm [3, 11] | mortality at 200 ppm [4, 12] | mortality at 12 ppm [2, 10] | percent effect (mortality or growth inhibition) at 200 ppm [5] | percent control (mortality, anti-feedant effect or growth inhibition) at 200 ppm [7] | mortality at 200 ppm [8, 14]

Cn1nc(OC(F)(F)C(F)Cl)c(C(F)(F)F)c1-n1cc(-c2ccc(Cl)c(C(=O)NC3(C#N)CC3)c2)cn1 (centres unmarked) [compound 44]
≥ 80%: mortality at 200 ppm [1, 9] | mortality at 200 ppm [4, 12] | mortality at 12 ppm [2, 10] | percent effect (mortality or growth inhibition) at 200 ppm [5] | mortality at 200 ppm [6, 13] | mortality at 200 ppm [8, 14]

Cn1nc(OCC(F)(F)C(F)(F)C(F)(F)C(F)F)c(C(F)(F)F)c1-n1cc(-c2ccc(Cl)c(C(=O)NC3(C#N)CC3)c2)cn1 [compound 20]
≥ 80%: mortality at 200 ppm [1] | mortality at 200 ppm [3] | mortality at 200 ppm [4] | mortality at 12 ppm [2] | percent control (mortality or growth inhibition) at 200 ppm [5] | mortality at 200 ppm [6] | mortality at 200 ppm [7] | mortality at 200 ppm [8]

Cn1nc(OC(F)(F)C(F)F)c(C(F)(F)F)c1-n1cc(-c2ccc(Cl)c(C(=O)NC3(C#N)CC3)c2)cn1 [compound 11]
≥ 80%: mortality at 200 ppm [1, 9] | mortality at 200 ppm [3, 11] | mortality at 200 ppm [4, 12] | mortality at 12 ppm [2, 10] | percent effect (mortality or growth inhibition) at 200 ppm [5] | mortality at 200 ppm [6, 13] | percent control (mortality, anti-feedant effect or growth inhibition) at 200 ppm [7] | mortality at 200 ppm [8, 14]

Cn1nc(OC(F)(F)C(F)Br)c(C(F)(F)F)c1-n1cc(-c2ccc(Cl)c(C(=O)NC3CC3)c2)cn1 (centres unmarked) [compound 43]
≥ 80%: mortality at 200 ppm [1, 9] | mortality at 200 ppm [3, 11] | mortality at 200 ppm [4, 12] | percent effect (mortality or growth inhibition) at 200 ppm [5] | mortality at 200 ppm [6, 13] | percent control (mortality, anti-feedant effect or growth inhibition) at 200 ppm [7] | mortality at 200 ppm [8, 14]

Cn1nc(OCC(F)F)c(C(F)(F)F)c1-n1cc(-c2ccc(Cl)c(C(=O)NC3CC3)c2)cn1 [compound 24]
≥ 80%: mortality at 200 ppm [1, 9] | mortality at 200 ppm [3, 11] | mortality at 200 ppm [4, 12] | mortality at 12 ppm [2, 10] | percent effect (mortality or growth inhibition) at 200 ppm [5] | percent control (mortality, anti-feedant effect or growth inhibition) at 200 ppm [7] | mortality at 200 ppm [8, 14]

Cn1nc(OC(F)(F)C(F)OC(F)(F)F)c(C(F)(F)F)c1-n1cc(-c2cnc(Cl)c(C(=O)NC3(C#N)CC3)c2)cn1 (centres unmarked) [compound 61]
≥ 80%: mortality at 200 ppm [1, 9] | mortality at 200 ppm [3, 11] | mortality at 200 ppm [4, 12] | percent effect (mortality or growth inhibition) at 200 ppm [5] | mortality at 200 ppm [6, 13] | percent control (mortality, anti-feedant effect or growth inhibition) at 200 ppm [7] | mortality at 200 ppm [8, 14]

Cn1nc(OC(F)(F)C(F)OC(F)(F)F)c(C(F)(F)F)c1-n1cc(-c2cnc(Cl)c(C(=O)NC3CC3)c2)cn1 (centres unmarked) [compound 62]
≥ 80%: mortality at 200 ppm [1, 9] | mortality at 200 ppm [3, 11] | mortality at 200 ppm [4, 12] | percent effect (mortality or growth inhibition) at 200 ppm [5] | mortality at 200 ppm [6, 13] | percent control (mortality, anti-feedant effect or growth inhibition) at 200 ppm [7] | mortality at 200 ppm [8, 14]

Cn1nc(OC(F)(F)C(F)C(F)(F)F)c(C(F)(F)F)c1-n1cc(-c2cnc(Cl)c(C(=O)NC3(C#N)CC3)c2)cn1 (centres unmarked) [compound 65]
≥ 80%: mortality at 200 ppm [1, 9] | mortality at 200 ppm [3, 11] | mortality at 200 ppm [4, 12] | percent effect (mortality or growth inhibition) at 200 ppm [5] | mortality at 200 ppm [6, 13] | mortality at 200 ppm [8, 14]

Cc1ccc(-c2cnn(-c3c(C(F)(F)F)c(OC(F)(F)C(F)C(F)(F)F)nn3C)c2)cc1C(=O)NC1CC1 (centres unmarked) [compound 58]
≥ 80%: mortality at 200 ppm [1, 9] | mortality at 200 ppm [3, 11] | mortality at 200 ppm [4, 12] | mortality at 12 ppm [2, 10] | mortality at 200 ppm [6, 13] | percent control (mortality, anti-feedant effect or growth inhibition) at 200 ppm [7] | mortality at 200 ppm [8, 14]

Cn1nc(OC(F)(F)CBr)c(C(F)(F)F)c1-n1cc(-c2ccc(Cl)c(C(=O)NC3(C#N)CC3)c2)cn1 [compound 41]
≥ 80%: mortality at 200 ppm [1, 9] | mortality at 200 ppm [3, 11] | mortality at 200 ppm [4, 12] | percent effect (mortality or growth inhibition) at 200 ppm [5] | mortality at 200 ppm [6, 13] | percent control (mortality, anti-feedant effect or growth inhibition) at 200 ppm [7] | mortality at 200 ppm [8, 14]

Cn1nc(OC(F)(F)C(F)C(F)(F)F)c(C(F)(F)F)c1-n1cc(-c2cnc(Cl)c(C(=O)NC3CC3)c2)cn1 (centres unmarked) [compound 66]
≥ 80%: mortality at 200 ppm [1, 9] | mortality at 200 ppm [3, 11] | percent effect (mortality or growth inhibition) at 200 ppm [5] | mortality at 200 ppm [6, 13] | mortality at 200 ppm [8, 14]

Cn1nc(SC(F)(F)F)c(Br)c1-n1cc(-c2ccc(Cl)c(C(=O)NC3CC3)c2)cn1 [compound 63]
≥ 80%: mortality at 200 ppm [1, 9] | mortality at 200 ppm [3, 11] | mortality at 200 ppm [4, 12] | percent effect (mortality or growth inhibition) at 200 ppm [5] | mortality at 200 ppm [6, 13] | percent control (mortality, anti-feedant effect or growth inhibition) at 200 ppm [7] | mortality at 200 ppm [8, 14]

Cn1nc(SC(F)(F)C(F)(F)C(F)(F)F)c(Br)c1-n1cc(-c2ccc(Cl)c(C(=O)NC3CC3)c2)cn1 [compound 64]
≥ 80%: mortality at 200 ppm [1] | mortality at 200 ppm [3] | mortality at 200 ppm [4] | percent control (mortality or growth inhibition) at 200 ppm [5] | mortality at 200 ppm [6] | mortality at 200 ppm [7] | mortality at 200 ppm [8]

Cn1nc(OC(F)(F)C(F)(C(F)=C(F)C(F)(F)F)C(F)(F)F)c(C(F)(F)F)c1-n1cc(-c2ccc(Cl)c(C(=O)NC3CC3)c2)cn1 (centres unmarked) [compound 51]
≥ 80%: mortality at 200 ppm [3, 11] | mortality at 200 ppm [4, 12] | mortality at 12 ppm [2, 10] | percent effect (mortality or growth inhibition) at 200 ppm [5] | mortality at 200 ppm [6, 13] | percent control (mortality, anti-feedant effect or growth inhibition) at 200 ppm [7] | mortality at 200 ppm [8, 14]

Cn1nc(OC(F)F)c(C(F)(F)F)c1-n1cc(-c2ccc(Cl)c(C(=O)NC3(C#N)CC3)c2)cn1 [compound 1]
≥ 80%: mortality at 200 ppm [1, 9] | mortality at 200 ppm [3, 11] | mortality at 200 ppm [4, 12] | mortality at 12 ppm [2, 10] | percent effect (mortality or growth inhibition) at 200 ppm [5] | percent control (mortality, anti-feedant effect or growth inhibition) at 200 ppm [7]
